According to ChEMBL document CHEMBL1154717:
Calls of active or inactive are those of the source. The calls are words filed in the database; no cut-off is given here.

What was measured:
[1] = Oral bioavailability in Sprague-Dawley rat at 25 mg/kg; assay type: ADME, organism-based; details: in vivo
HCT-116 [2] = assay: cells; details: Homo sapiens, HCT-116, 96 h
[3] = Cmax in Sprague-Dawley rat at 25 mg/kg, po; assay type: ADME, organism-based; design: dose 25 mg/kg, route oral; details: in vivo
[4] = Terminal half life in Sprague-Dawley rat at 25 mg/kg, po; assay type: ADME, organism-based; design: dose 25 mg/kg, route oral; details: in vivo, read-out: beta t1/2 (converted)
HCT-116 [5] = assay: cells; details: Homo sapiens, HCT-116, 96 h; remark: listed apart in the source
Rattus norvegicus [6] = assay: AUC (0 to t) in Sprague-Dawley rat at 25 mg/kg, po; assay type: ADME, organism-based, Plasma; design: dose 25 mg/kg, route oral; details: in vivo
[7] = target: T1, Tumour suppressor p53/oncoprotein Mdm2 (Homo sapiens) (UniProt P04637+Q00987); assay: Inhibition of MDM2-p53 interaction in human SJSA1 cells expressing wild type p53 assessed as increase in MDM2 protein level at 10 uM by Western blot; assay type: cell-based; details: SJSA-1
[8] = target: T1, Tumour suppressor p53/oncoprotein Mdm2 (Homo sapiens); assay: Inhibition of MDM2-p53 interaction in human SJSA1 cells expressing wild type p53 assessed as increase in p21 protein level at 10 uM by Western blot; assay type: cell-based; details: SJSA-1
Mus musculus [9] = assay: Toxicity in mouse xenografted with human SJSA1 cells assessed as occurrence of toxicity symptoms at 300 mg/kg, po qd for 14 days relative to untreated control; assay type: organism-based, SJSA-1; design: dose 300 mg/kg, route oral; details: in vivo, 336 h
[10] = Oral bioavailability in Sprague-Dawley rat at 50 mg/kg; assay type: ADME, organism-based; details: in vivo
SJSA-1 [11] = assay: Induction of cell death in human SJSA1 cells by trypan blue staining; assay type: functional, cell-based
SAOS-2 = assay: Induction of cell death in human Saos2 cells deficient in wild type p53 at 10 uM by trypan blue staining; assay type: functional, cell-based
Mus musculus [12] = assay: Toxicity in mouse xenografted with human SJSA1 cells assessed as weight loss at 300 mg/kg, po qd for 14 days relative to untreated control; assay type: organism-based, SJSA-1; design: dose 300 mg/kg, route oral; details: in vivo, 336 h
[13] = Terminal half life in Sprague-Dawley rat at 50 mg/kg, po; assay type: ADME, organism-based; design: dose 50 mg/kg, route oral; details: in vivo, read-out: beta t1/2 (converted)
SJSA-1 [14] = assay: Induction of cell death in human SJSA1 cells at 1. 25 uM after 2 days by trypan blue staining; assay type: functional
[15] = Cmax in Sprague-Dawley rat at 50 mg/kg, po; assay type: ADME, organism-based; design: dose 50 mg/kg, route oral; details: in vivo
Rattus norvegicus [16] = assay: AUC (0 to t) in Sprague-Dawley rat at 50 mg/kg, po; assay type: ADME, organism-based, Plasma; design: dose 50 mg/kg, route oral; details: in vivo

T1 sequence (P04637 whole entry, looked up): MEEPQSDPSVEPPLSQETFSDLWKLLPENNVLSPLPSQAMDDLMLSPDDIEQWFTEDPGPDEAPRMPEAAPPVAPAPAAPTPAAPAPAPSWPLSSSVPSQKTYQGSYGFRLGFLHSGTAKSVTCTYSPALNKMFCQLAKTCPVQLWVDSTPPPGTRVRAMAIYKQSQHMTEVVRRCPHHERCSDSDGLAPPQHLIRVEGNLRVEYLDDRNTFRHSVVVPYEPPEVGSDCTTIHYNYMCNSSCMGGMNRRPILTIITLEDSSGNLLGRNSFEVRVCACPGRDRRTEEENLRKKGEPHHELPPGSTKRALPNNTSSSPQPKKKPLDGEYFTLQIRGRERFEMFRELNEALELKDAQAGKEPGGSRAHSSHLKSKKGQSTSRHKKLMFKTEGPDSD
T1 sequence (Q00987 whole entry, looked up): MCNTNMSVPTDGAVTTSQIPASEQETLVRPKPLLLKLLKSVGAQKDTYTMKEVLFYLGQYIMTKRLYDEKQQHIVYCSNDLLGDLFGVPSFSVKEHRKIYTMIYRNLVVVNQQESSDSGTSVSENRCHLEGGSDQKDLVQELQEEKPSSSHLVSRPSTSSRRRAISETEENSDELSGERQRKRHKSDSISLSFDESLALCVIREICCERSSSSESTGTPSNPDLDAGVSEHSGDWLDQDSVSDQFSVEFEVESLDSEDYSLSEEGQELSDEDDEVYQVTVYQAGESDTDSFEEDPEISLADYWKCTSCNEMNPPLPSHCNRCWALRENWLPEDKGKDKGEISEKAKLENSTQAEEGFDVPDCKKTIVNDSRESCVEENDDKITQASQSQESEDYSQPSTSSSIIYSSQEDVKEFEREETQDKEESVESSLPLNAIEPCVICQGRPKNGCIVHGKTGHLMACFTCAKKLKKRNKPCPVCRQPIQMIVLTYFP

bioavailability [1] | IC50 (HCT-116 [2]) | Cmax [3] | half-life [4] | IC50 (HCT-116 [5]) | SMILES | further results
19% | 800 nM | 805 ng/mL | 180 min |  | CC(C)(C)C[C@H]1N[C@@H](C(=O)NCC[C@H](O)CO)[C@H](c2cccc(Cl)c2)[C@@]12C(=O)Nc1cc(Cl)ccc12 | 
14% | 400 nM | 120 ng/mL | 426 min | 7.3 µM | CN1CCC(CCNC(=O)[C@@H]2N[C@H](CC(C)(C)C)[C@]3(C(=O)Nc4cc(Cl)ccc43)[C@H]2c2cccc(Cl)c2F)CC1 | 
10% | 700 nM | 248 ng/mL | 78 min |  | CC(C)(C)C[C@H]1N[C@@H](C(=O)NCCN2CCOCC2)[C@H](c2cccc(Cl)c2F)[C@@]12C(=O)Nc1cc(Cl)ccc12 | 
31% | 2800 nM | 3550 ng/mL | 204 min | 32.8 µM | CC(C)(C)C[C@H]1N[C@@H](C(=O)NCC[C@@H](O)CO)[C@H](c2cccc(Cl)c2)[C@@]12C(=O)Nc1cc(Cl)c(F)cc12 | AUC (Rattus norvegicus [6]): 11700 ng·h/mL
5% | 800 nM | 97 ng/mL | 72 min |  | COCCOCCNC(=O)[C@@H]1N[C@H](CC(C)(C)C)[C@]2(C(=O)Nc3cc(Cl)ccc32)[C@H]1c1cccc(Cl)c1F | 
 |  |  |  |  | COc1ccc2c(c1)NC(=O)[C@]21[C@@H](CC(C)(C)C)N[C@@H](C(=O)N(C)C)[C@@H]1c1cccc(Br)c1 | Activity [7]: inactive; Activity [8]: inactive
31% | 400 nM | 274 ng/mL | 228 min |  | CN1CCN(CCNC(=O)[C@@H]2N[C@H](CC(C)(C)C)[C@]3(C(=O)Nc4cc(Cl)ccc43)[C@H]2c2cccc(Cl)c2F)CC1 | 
18% | 1300 nM | 2070 ng/mL | 192 min | 23.6 µM | CC(C)(C)C[C@H]1N[C@@H](C(=O)NC[C@H](O)CO)[C@H](c2cccc(Cl)c2)[C@@]12C(=O)Nc1cc(Cl)c(F)cc12 | 

SMILES | bioavailability [1] | IC50 (HCT-116 [2]) | Cmax [3] | half-life [4] | IC50 (HCT-116 [5]) | further results
CC(C)(C)C[C@H]1N[C@@H](C(=O)NCC[C@H](O)CO)[C@H](c2cccc(Cl)c2F)[C@@]12C(=O)Nc1cc(Cl)ccc12 |  | 400 nM |  |  | 16 µM | Activity (Mus musculus [9]): Non-toxic; bioavailability [10]: 21%; Activity (SJSA-1 [11]): Dose-dependent effect; Activity (SAOS-2): inactive; Activity (Mus musculus [12]): Non-toxic; half-life [13]: 234 min; Activity (SJSA-1 [14]): 50%; Cmax [15]: 1510 ng/mL; AUC (Rattus norvegicus [16]): 8770 ng·h/mL
CC(C)(C)C[C@H]1N[C@@H](C(=O)NCC[C@H](O)CO)[C@H](c2cccc(Cl)c2)[C@@]12C(=O)Nc1cc(Cl)c(F)cc12 | 65% | 1100 nM | 3750 ng/mL | 84 min | 24.8 µM | Activity (SJSA-1 [11]): Dose-dependent effect; Activity (SJSA-1 [14]): 20%
